The text below walks through data of patent US9193731B2, “Antimicrobial compounds and methods of making and using the same” (Melinta Therapeutics, Inc., priority 2009, dated 2015).

This test deals with Escherichia coli strain ATCC25922. The test can be described thus: standard microdilution assay to determine minimum inhibitory concentrations (MICs). It counts as cell-based. Conditions: for E. coli ATCC25922 MIC: Escherichia coli strain ATCC25922, microdilution; for MIC: Escherichia coli, ATCC25922, Escherichia coli strain ATCC25922, microdilution, read-out: E. coli ATCC25922 MIC. The method in brief:
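Broth microdilution MIC against E. coli ATCC25922, following CLSI protocols, typically in a 100 microliter final volume. Results reported as +/− relative to a 16 micrograms/ml cutoff.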
Background: Broth dilution looks for growth in wells or tubes with falling amounts of substance.

Usually MIC stands for the lowest concentration found to suppress growth.

With `NCCCNCc1ccc(-n2cc3cc(-c4cc(C(=O)N5CCS(=O)(=O)CC5)cc(N5CCNCC5)c4)[nH]c3nc2=O)cc1` [Compound 874], the “E. coli ATCC25922 MIC” value is given as “− (a “−” indicates that the compound has an MIC value greater than 16 micrograms/ml)”.
`O=c1nc2[nH]c(-c3ccc(S(=O)(=O)NC4CCNCC4)cc3)cc2cn1-c1cccc(OCC2CCNCC2)c1` [Compound 1141]: the MIC was above 16 µg/mL.
Regarding `N=C(N)NCCCNCc1ccc(-n2cc3cc(-c4cc(CCCCN)cc(OC(F)F)c4)[nH]c3nc2=O)cc1` [Compound 2074a], the “E. coli ATCC25922 MIC” value is given as “+ (a “+” indicates that the compound has an MIC value of 16 micrograms/ml or less)”.
Consider `N=C(N)NCCCNCc1ccc(-n2cc3cc(-c4ccc(S(=O)(=O)N(CCCC5CCCCN5)C5CCNCC5)cc4)[nH]c3nc2=O)cc1` (stereo not shown) [Compound 1019], for which the “E. coli ATCC25922 MIC” value was “+ (a “+” indicates that the compound has an MIC value of 16 micrograms/ml or less)”.
The same measure, in the same setting: next, `N=C(N)NCCCNC(=O)c1ccc(-n2cc3cc(-c4ccc(S(=O)(=O)CCCNC5CCNCC5)cc4)[nH]c3nc2=O)cc1` [Compound 1261]: “+ (a “+” indicates that the compound has an MIC value of 16 micrograms/ml or less)”; `N=C(N)NCCC(=O)NCc1ccc(-n2cc3cc(-c4ccc(S(=O)(=O)NC5CCNCC5)cc4)[nH]c3nc2=O)cc1` [Compound 1075]: “+ (a “+” indicates that the compound has an MIC value of 16 micrograms/ml or less)”.
In the case of `N=C(N)NCCCN(CCCN)Cc1ccc(-n2cc3cc(-c4ccc(S(=O)(=O)NC5CCNCC5)cc4)[nH]c3nc2=O)cc1` [Compound 220], the MIC is below 16 µg/mL.
For the molecule `N=C(N)NCCCNC(=O)c1ccc(-n2cc3cc(-c4ccc(S(=O)(=O)CCCNC5CCCNC5)cc4)[nH]c3nc2=O)cc1` (stereo not shown) [Compound 1276], the “E. coli ATCC25922 MIC” value was “+ (a “+” indicates that the compound has an MIC value of 16 micrograms/ml or less)”.
Take `N=C(N)NCCCNCc1ccc(-n2cc3cc(-c4cc(C(=O)NC5CCNCC5)cc(N5CCNCC5)c4)[nH]c3nc2=O)cc1` [Compound 1023]: the “E. coli ATCC25922 MIC” value was “+ (a “+” indicates that the compound has an MIC value of 16 micrograms/ml or less)”.
Turning to `N=C(N)NCCCOCc1ccc(-c2cn3cc(-c4ccc(Br)cc4)[nH]c3nc2=O)cc1` [Compound 901], the MIC was above 16 µg/mL.
On to `N=C(N)NCCCNCc1ccc(-n2cc3cc(-c4ccc(S(=O)(=O)N(CC5CC5(F)F)C5CCNCC5)cc4)[nH]c3nc2=O)cc1` (stereo not shown) [Compound 857], for which the “E. coli ATCC25922 MIC” value is “+ (a “+” indicates that the compound has an MIC value of 16 micrograms/ml or less)”.
Take `N=C(N)NCCCNCc1ccc(-n2cc3cc(-c4cccc(SCCCN)c4)[nH]c3nc2=O)cc1` [Compound 1405]: the “E. coli ATCC25922 MIC” value is reported as “+ (a “+” indicates that the compound has an MIC value of 16 micrograms/ml or less)”.
The same measure, in the same setting: next, `N=C(N)NCCCNCc1ccc(-n2cc3cc(-c4ccc(S(=O)(=O)N(CCCc5cccnc5)C5CCNCC5)cc4)[nH]c3nc2=O)cc1` [Compound 801]: “+ (a “+” indicates that the compound has an MIC value of 16 micrograms/ml or less)”.
Same read-out and setting: next, `N=C(N)NCCCNCc1ccc(-c2cn3cc(-c4ccc(C(=O)N5CCC(N)CC5)cc4)[nH]c3nc2=O)cc1` [Compound 808]: “+ (a “+” indicates that the compound has an MIC value of 16 micrograms/ml or less)”; `N=C(N)NCCCNCc1ccc(-n2cc3cc(-c4ccc(S(=O)(=O)N(CCCc5cc(-c6ccccc6)n[nH]5)C5CCNCC5)cc4)[nH]c3nc2=O)cc1` [Compound 1175]: “+ (a “+” indicates that the compound has an MIC value of 16 micrograms/ml or less)”.
As to `N=C(N)NCCCNCC(Cn1cc2cc(-c3ccc(S(=O)(=O)NC4CCNCC4)cc3)[nH]c2nc1=O)OCc1ccc(F)c(F)c1` (stereo not shown) [Compound 1089], the “E. coli ATCC25922 MIC” value was “− (a “−” indicates that the compound has an MIC value greater than 16 micrograms/ml)”.
For `NCc1ccc(-n2cc3cc(-c4ccc(C(=O)NC5CCNCC5)cc4)[nH]c3nc2=O)cc1` [Compound 224], the MIC is below 16 µg/mL.
`N=C(N)NCCCNCc1ccc(-n2cc3cc(-c4cc(CN)cc(OCC(F)CN)c4)[nH]c3nc2=O)cc1` (stereo not shown) [Compound 2051a]: the “E. coli ATCC25922 MIC” value is reported as “+ (a “+” indicates that the compound has an MIC value of 16 micrograms/ml or less)”.
The same measure, in the same setting: next, `N=C(N)NCCCNCc1ccc(-n2cc3cc(-c4ccc(S(=O)(=O)NC5CNC5)cc4)[nH]c3nc2=O)cc1` [Compound 1122]: “+ (a “+” indicates that the compound has an MIC value of 16 micrograms/ml or less)”.
Take `NCc1ccc(-n2cc3cc(-c4cccc(CCN5CCNCC5)c4)[nH]c3nc2=O)cc1` [Compound 1200]: the MIC is above 16 µg/mL.
For `N#CCCCOc1cccc(-c2cc3cn(-c4ccc(CNCCCNC(=N)N)cc4)c(=O)nc3[nH]2)c1` [Compound 1203], the MIC was above 16 µg/mL.
The same measure, in the same setting: next, `NCCCOCc1ccc(-c2cn3cc(-c4ccc(Br)cc4)[nH]c3nc2=O)cc1` [Compound 902]: above 16 µg/mL.
With `NCCCNCc1ccc(-n2cc3cc(-c4cc(C(=O)N(CCO)CCO)cc(N5CCNCC5)c4)[nH]c3nc2=O)cc1` [Compound 894], the “E. coli ATCC25922 MIC” value is on record as “− (a “−” indicates that the compound has an MIC value greater than 16 micrograms/ml)”.
With `CNCc1ccc(-n2cc3cc(-c4ccc(S(=O)(=O)N(CCCN5CCCCC5C)C5CCNCC5)cc4)[nH]c3nc2=O)cc1` (stereo not shown) [Compound 1039], the MIC is above 16 µg/mL.
Regarding `N=C(N)NCCCNCc1ccc(-n2cc3cc(-c4ccc(S(=O)(=O)N(CCCn5ccc(C(F)(F)F)n5)C5CCNCC5)cc4)[nH]c3nc2=O)cc1` [Compound 934], the “E. coli ATCC25922 MIC” value was “+ (a “+” indicates that the compound has an MIC value of 16 micrograms/ml or less)”.
Same read-out and setting: next, `CC(CN)CN1CCC(c2cc3cn(-c4ccc(CNCCCNC(=N)N)cc4)c(=O)nc3[nH]2)C1` (mixture of isomers) [Compound 2016a]: “+ (a “+” indicates that the compound has an MIC value of 16 micrograms/ml or less)”.
The same measure, in the same setting: next, `N=C(N)NCCCNCc1ccc(-n2cc3cc(-c4cc(CNCC(F)(F)F)cc(N5CCNCC5)c4)[nH]c3nc2=O)cc1` [Compound 1040]: “+ (a “+” indicates that the compound has an MIC value of 16 micrograms/ml or less)”.
In the case of `NCCCc1cccc(-c2cc3cn(-c4ccc(CN)cc4)c(=O)nc3[nH]2)c1` [Compound 2057a], the MIC is above 16 µg/mL.
`N=C(N)NCCCNCc1ccc(-n2cc3cc(-c4cc(C(=O)NCC5CCCO5)cc(N5CCNCC5)c4)[nH]c3nc2=O)cc1` (stereo not shown) [Compound 1029]: the “E. coli ATCC25922 MIC” value is recorded as “+ (a “+” indicates that the compound has an MIC value of 16 micrograms/ml or less)”.
Same read-out and setting: next, `NC(N)=NCCCNCc1ccc(-n2cc3cc(-c4ccc(S(=O)(=O)NC5CCNCC5)cc4)oc3nc2=O)cc1` [Compound 1242]: “+ (a “+” indicates that the compound has an MIC value of 16 micrograms/ml or less)”.
On to `CNCc1ccc(-n2cc3cc(-c4ccc(S(=O)(=O)N(CCCC5CCCO5)C5CCNCC5)cc4)[nH]c3nc2=O)cc1` (stereo not shown) [Compound 1052], for which the MIC is above 16 µg/mL.
Still for that read-out and setting: next, `N=C(N)NCCCN(CCCN)Cc1ccc(-n2cc3cc(-c4ccc(C(=O)NC5CN6CCC5CC6)cc4)[nH]c3nc2=O)cc1` (stereo not shown) [Compound 216]: below 16 µg/mL.
The same measure, in the same setting: next, `CNCc1ccc(-n2cc3cc(-c4ccc(S(=O)(=O)N(CCCN5CCOCC5)C5CCNCC5)cc4)[nH]c3nc2=O)cc1` [Compound 1037]: above 16 µg/mL.
On to `N=C(N)NCCCNCc1ccc(-n2cc3cc(-c4cc(CO)cc(CCCCN)c4)[nH]c3nc2=O)cc1` [Compound 2065a], for which the “E. coli ATCC25922 MIC” value was “+ (a “+” indicates that the compound has an MIC value of 16 micrograms/ml or less)”.
As for `COCCOCCOc1cccc(-c2cc3cn(-c4ccc(CN)cc4)c(=O)nc3[nH]2)c1` [Compound 1094], the MIC is above 16 µg/mL.
Consider `CC(CN)CN1CCC(c2cc3cn(-c4ccc(CNCCCN)cc4)c(=O)nc3[nH]2)C1` (stereo not shown) [Compound 2041a], for which the “E. coli ATCC25922 MIC” value was “+ (a “+” indicates that the compound has an MIC value of 16 micrograms/ml or less)”.
On the same count and under the same terms, next, `N=C(N)NCCCNCc1ccc(-n2cc3cc(-c4cc(CCNC(N)=O)cc(OCC(F)CN)c4)[nH]c3nc2=O)cc1` (stereo not shown) [Compound 2012a]: “− (a “−” indicates that the compound has an MIC value greater than 16 micrograms/ml)”; `N=C(N)NCCCNCc1ccc(-c2cn3cc(-c4ccc(C(=O)NCCO)cc4)[nH]c3nc2=O)cc1` [Compound 828]: “+ (a “+” indicates that the compound has an MIC value of 16 micrograms/ml or less)”.
In the case of `N=C(N)NCCCNCc1ccc(-n2cc3cc(-c4cccc(C(NC5CN(C(=N)N)C5)C(F)(F)F)c4)[nH]c3nc2=O)cc1` (stereo not shown) [Compound 2024a], the “E. coli ATCC25922 MIC” value is “+ (a “+” indicates that the compound has an MIC value of 16 micrograms/ml or less)”.
Turning to `N=C(N)NCCCNCc1ccc(-n2cc3cc(-c4ccc(C(=O)NC5CCNCC5)cc4)[nH]c3nc2=O)cc1` [Compound 234], the MIC is below 16 µg/mL.
With `N=C(N)NCCCNCc1ccc(-n2cc3cc(-c4cc(C(=O)N5CCN(CCO)CC5)cc(N5CCNCC5)c4)[nH]c3nc2=O)cc1` [Compound 861], the “E. coli ATCC25922 MIC” value is “− (a “−” indicates that the compound has an MIC value greater than 16 micrograms/ml)”.
On the same count and under the same terms, next, `N=C(N)NCCCNCc1ccc(-n2cc3cc(-c4cc(CN5CCS(=O)(=O)CC5)cc(N5CCNCC5)c4)[nH]c3nc2=O)cc1` [Compound 915]: “+ (a “+” indicates that the compound has an MIC value of 16 micrograms/ml or less)”; `N=C(N)NCCCNS(=O)(=O)c1ccc(-n2cc3cc(-c4ccc(S(=O)(=O)NC5CCNCC5)cc4)[nH]c3nc2=O)cc1` [Compound 1103]: “+ (a “+” indicates that the compound has an MIC value of 16 micrograms/ml or less)”.
Consider `NCc1ccc(-n2cc3cc(-c4cccc(OCCOc5ccc(Cl)cc5)c4)[nH]c3nc2=O)cc1` [Compound 1127], for which the MIC was above 16 µg/mL.
Still for that read-out and setting: next, `N=C(N)N[C@H]1CCCN(Cc2ccc(-n3cc4cc[nH]c4nc3=O)cc2)C1` [Compound 1155]: above 16 µg/mL.
Turning to `CCOC(CN)COc1cccc(-c2cc3cn(-c4ccc(CNCCCNC(=N)N)cc4)c(=O)nc3[nH]2)c1` (stereo not shown) [Compound 1458], the “E. coli ATCC25922 MIC” value is “+ (a “+” indicates that the compound has an MIC value of 16 micrograms/ml or less)”.
